The results in this text go back to ChEMBL document CHEMBL1201862, “PubChem BioAssay data set” (2004).

SMILES strings stand for the structures.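 Grown in 96-well plates, cells were treated for 48 hours with each compound at five concentrations. Insufficient inhibition: endpoint recorded as highest concentration tested. The concentration for 50% growth inhibition is given as GI50.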 Calls of active or inactive are those of the source. No stated cut-off is given here; in the data, active = GI50 up to about 1.1 µM and inactive = higher. Where a SMILES comes first, the peptide text is derived from it. The star is where a group is joined. Boc = CC(C)(C)OC(=O)*

Common to all, as to assay: growth of human tumour cells (NCI), 48 h
Assay [1] relates to NCI-H226.
Assay [2] concerns BT-549.
Assay [3] has as its system MCF7.
In assay [4] the test system is 786-0.
For assay [5], the system named is OVCAR-5.
In assay [6] the test system is NCI-H460.
The subject of assay [7] is DU-145.
For assay [8], the system named is ACHN.
Assay [9] relates to T47D.
The test system of assay [10] is SF-268.
In assay [11] the test system is CCRF-CEM.
In assay [12] the test system is LOX IMVI.
For assay [13], the system named is UACC-257.
The subject of assay [14] is NCI-H23.
Assay [15] deals with CAKI-1.
The subject of assay [16] is KM12.
The subject of assay [17] is SK-OV-3.
The test system of assay [18] is COLO 205.
The subject of assay [19] is EKVX.

With `COC(=O)C(Cc1c[nH]c2ccccc12)NC(=O)C(Cc1c[nH]c2ccccc12)NC(=O)C(Cc1c[nH]c2ccccc12)NC(=O)C(Cc1c[nH]c2ccccc12)NC(=O)C(Cc1c[nH]c2ccccc12)NC(=O)C(Cc1c[nH]c2ccccc12)NC(=O)C(Cc1c[nH]c2ccccc12)NC(=O)OC(C)(C)C` (stereo not given) (Boc-WWWWWWW-OMe; configuration not given here), the GI50 is 40.9 µM (inactive) in [1]; > 100 µM (inactive) in [2]; 59.4 µM (inactive) in assay [3]; 26.3 µM (inactive) in assay [4]; 42.4 µM (inactive) in [5]; > 100 µM (inactive) in assay [6]. The GI50 in [7] was 64 µM (inactive); in assay [8], > 100 µM (inactive); in assay [9], > 100 µM (inactive); in assay [10], > 100 µM (inactive); in [11], 92.7 µM (inactive); in assay [12] it was 84.9 µM (inactive). For the same molecule, the GI50 in [13] was 67.5 µM (inactive); in assay [14], 64.1 µM (inactive); in assay [15], > 100 µM (inactive).
`Cc1nnc2n1N=C(c1cc(F)c(Cl)cc1Cl)/C(=C/c1ccc(-c3ccc([N+](=O)[O-])cc3)o1)S2`: the GI50 in [2] is 58.2 µM (inactive); in assay [3] it was 44 µM (inactive); in [4], 78.3 µM (inactive); in [5] it was > 100 µM (inactive); in assay [16], 69.2 µM (inactive); in [6], > 100 µM (inactive). Further, the GI50 is > 100 µM (inactive) in assay [17]; > 100 µM (inactive) in [8]; 28.6 µM (inactive) in assay [9]; > 100 µM (inactive) in assay [10]; 37.2 µM (inactive) in [11]; 65.9 µM (inactive) in assay [18]. The GI50 in assay [12] is 33.2 µM (inactive); in assay [13] it was > 100 µM (inactive); in [14], 34.3 µM (inactive); in [19], > 100 µM (inactive); in assay [15] it was > 100 µM (inactive).
With `CCCCCCCCCCCCn1c(=O)cc(NCCCC)c2cc3c(NCCCC)cc(=O)n(CCCCCCCCCCCC)c3nc21`, the GI50 in [1], in [2], in assay [3], in assay [4], in assay [16] and in [6] was > 100 µM (inactive) in each case. For the same molecule, the GI50 in assay [17] is > 100 µM (inactive); in assay [7], > 100 µM (inactive); in [8], > 100 µM (inactive); in assay [9], > 100 µM (inactive); in assay [10], 99.1 µM (inactive); in [18] it was > 100 µM (inactive). Further, the GI50 in assay [13], in assay [14] and in [15] was > 100 µM (inactive) throughout.
Turning to `CCCCCCC(C)CC(CCCCCC)NCCOC(=O)c1ccc([N+](=O)[O-])cc1` (stereo not given), the GI50 in assay [1] was 14.1 µM (inactive); in [2], 16.4 µM (inactive); in [3], 14.1 µM (inactive); in [4], 14.9 µM (inactive); in assay [5], 31.2 µM (inactive); in assay [16], 14.1 µM (inactive). For the same molecule, the GI50 in assay [17] is 16.3 µM (inactive); in assay [7], 15.6 µM (inactive); in [8] it was 15.1 µM (inactive); in assay [9], 15.6 µM (inactive); in assay [10], 16.3 µM (inactive); in assay [11], 2.69 µM (inactive). Also, the GI50 in assay [18] was 2.17 µM (inactive); in [12], 7.4 µM (inactive); in [13] it was 9.46 µM (inactive); in assay [14], 18 µM (inactive); in assay [19], 13.7 µM (inactive).
In the case of `CC(SC(=S)N1CCCC1)C(=O)Nc1nnc(-c2ccc(Cl)cc2)o1` (stereo not given), the GI50 in assay [1] was 40.3 µM (inactive); in assay [2], 39.8 µM (inactive); in assay [3] it was 33.7 µM (inactive); in assay [4], 14.1 µM (inactive); in [5], 33.2 µM (inactive); in [6] it was 39.4 µM (inactive). Besides, the GI50 is 52.7 µM (inactive) in [17]; 44.2 µM (inactive) in assay [7]; 33 µM (inactive) in assay [8]; 48.8 µM (inactive) in assay [9]; 18 µM (inactive) in assay [10]; < 0.01 µM (active) in assay [11]. Also, the GI50 in [18] was 37.6 µM (inactive); in assay [12], 18.7 µM (inactive); in assay [13], 40.4 µM (inactive); in assay [14], 39.5 µM (inactive).
On to `CCOC(=O)c1nc2ccc(C(F)(F)F)cc2nc1Nc1ccc(F)cc1`, for which the GI50 was > 100 µM (inactive) in assay [2]; > 100 µM (inactive) in assay [3]; 45.3 µM (inactive) in assay [4]; > 100 µM (inactive) in [5]; > 100 µM (inactive) in [16]; 28.9 µM (inactive) in assay [6]. Also, the GI50 in assay [17] was > 100 µM (inactive); in [7] it was > 100 µM (inactive); in [8] it was > 100 µM (inactive); in [9] it was > 100 µM (inactive); in [10], 52.1 µM (inactive); in [11], > 10 µM (inactive). The GI50 in assay [18] is > 100 µM (inactive); in assay [12], > 100 µM (inactive); in assay [13] it was > 100 µM (inactive); in assay [14], 40.3 µM (inactive); in [15] it was > 100 µM (inactive).
Consider `O=C(O)c1nn[nH]c1Cl`, for which the GI50 in assay [1], in assay [2], in assay [3], in [4], in assay [5] and in assay [16] was > 100 µM (inactive) in each case. Moreover, the GI50 in [6], in [17], in assay [7], in assay [8], in [9] and in assay [10] was > 100 µM (inactive) in each case. The GI50 in assay [11], in [18], in assay [12], in [13], in assay [14] and in assay [19] was > 100 µM (inactive) in each case.
Turning to `COc1ccc(/C=C2\N=C(c3ccccc3)OC2=O)cc1OC(C)=O`, the GI50 is > 100 µM (inactive) in assay [1]; > 100 µM (inactive) in assay [2]; 53.2 µM (inactive) in assay [3]; 56 µM (inactive) in assay [4]; > 100 µM (inactive) in assay [5]; > 100 µM (inactive) in assay [6]. Further, the GI50 in assay [17] was > 100 µM (inactive); in assay [7] it was > 100 µM (inactive); in [8], 33.6 µM (inactive); in assay [9] it was > 100 µM (inactive); in assay [10], 27.3 µM (inactive); in assay [11], 27.7 µM (inactive). The GI50 in assay [18] was > 100 µM (inactive); in [12] it was 51.3 µM (inactive); in [13] it was > 100 µM (inactive); in assay [14] it was 65.6 µM (inactive).
`COC(=O)[C@H](COC(C)(C)C)NC(=O)N[C@H](C)c1ccccc1`: the GI50 in [1], in assay [2], in assay [3], in [4], in assay [5] and in assay [16] was > 100 µM (inactive) throughout. The GI50 in assay [6], in assay [17], in assay [7], in [8], in [10] and in [11] was > 100 µM (inactive) each time. For the same molecule, the GI50 in assay [18], in assay [12], in assay [13], in assay [14], in assay [19] and in assay [15] was > 100 µM (inactive) each time.
For `COc1cc2oc(-c3ccc(O)cc3O)c(CC=C(C)C)c(=O)c2c(O)c1/C=C/C(C)C` [ARTOCARPIN], the GI50 in assay [1] was 3.58 µM (inactive); in [2], 5.45 µM (inactive); in assay [3] it was 2.88 µM (inactive); in assay [4] it was 2.14 µM (inactive); in assay [5] it was 6.64 µM (inactive); in assay [16], 3.1 µM (inactive). Moreover, the GI50 was 3.21 µM (inactive) in [6]; 7.21 µM (inactive) in assay [17]; 4.26 µM (inactive) in assay [7]; 2.8 µM (inactive) in assay [8]; 7.1 µM (inactive) in [9]; 2.25 µM (inactive) in [10]. Moreover, the GI50 is 2.36 µM (inactive) in assay [11]; 4.02 µM (inactive) in [18]; 1.8 µM (inactive) in assay [12]; 6.31 µM (inactive) in [13]; 3.24 µM (inactive) in assay [14]; 4.2 µM (inactive) in assay [19].
For the molecule `Cn1c(=O)oc2cc(C(=S)N3CCC(Cc4ccccc4)CC3)ccc21`, the GI50 in [1], in assay [2], in [3], in assay [4], in assay [5] and in [16] was > 100 µM (inactive) in each case. In addition, the GI50 in assay [6], in assay [17], in [7], in assay [8], in assay [10] and in assay [11] was > 100 µM (inactive) each time. In addition, the GI50 in assay [18], in [12], in assay [13], in assay [14], in assay [19] and in assay [15] was > 100 µM (inactive) each time.
